Consider 15 molecules from patent US20250381243A1, “HETEROCYCLES AND USES THEREOF” (Kumquat Biosciences Inc., priority 2022, published 2025).

Where only a bound is given, the exact number is not on record here.

One test has as its system A549 cells. The test can be described thus: Cell proliferation assay (CellTiter-Glo), cells with K-Ras G12S mutation. The settings on record: Homo sapiens, 500 nM to 5 μM (mixed units), read-out: Inhibition of A549 Cells (IC50). The test is classed as cell-based. The protocol:
A549 (ATCC CRL-185) and LS123 (ATCC CRL-255) cell lines comprise a G12S mutation and can be used to assess Ras cellular signaling in vitro, e.g., in response to treatment with a compound described herein. A549 culture medium is prepared with RPMI-1640 and 10% heat-inactivated FBS. LS123 culture medium is prepared with RPMI-1640 and 10% heat-inactivated FBS. A CellTiter-Glo (CTG) luminescent based assay (Promega) is used to assess growth of the cells, as a measurement of the ability of the compounds herein to inhibit Ras signaling in the cells. The cells (e.g., 800 per well) are seeded in their respective culture medium in standard tissue culture-treated 384-well format plates (Falcon #08-772-116) or ultra-low attachment surface 384-well format plates (S-Bio #MS-9384WZ). The day after plating, cells are treated with a dilution series (e.g., a 10 point 3-fold dilution series) of the compounds herein (e.g., approximately 40 μl final volume per well). Cell viability can be monitored (e.g., approximately 6 days later) according to the manufacturer's recommended instructions, where CellTiter-Glo reagent is added (e.g., approximately 10 μl), vigorously mixed, covered, and placed on a plate shaker (e.g., approximately for 20 min) to ensure sufficient cell lysis prior to assessment of luminescent signal. The IC50 values are determined using the four parameter fit. The resulting IC50 value is a measurement of the ability of the test compound to reduce cell growth of Ras-driven cells (e.g., tumor cell lines) in vitro and/or in vivo.
For orientation: Cellular ATP, detected with luciferase, serves as a proxy for viable cell number.
As a reminder, the IC50 is the concentration that inhibits the measured activity by half. For the molecule `CC1CC2C(CCCN2c2nc(OC[C@@]34CCCN3C[C@H](F)C4)nc3c(F)c(-c4ccc(F)c5sc(N)c(C#N)c45)c(Cl)cc23)N1C(=O)n1cncn1` (stereo partly drawn) [Compound 113, 2-amino-4-(6-chloro-8-fluoro-2-(((2R,7aS)-2-fluorotetrahydro-1H-pyrrolizin-7a(5H)-yl)methoxy)-4-(2-methyl-1-(1H-1,2,4-triazole-1-carbonyl)octahydro-4H-pyrrolo[3,2-b]pyridin-4-yl)quinazolin-7-yl)-7-fluorobenzo[b]thiophene-3-carbonitrile], the IC50 fell in the range of 0.5 to 5 µM.

Staying with this test, now noted: Homo sapiens, ≤500 nM, read-out: Inhibition of A549 Cells (IC50).
Take `CCC1N(C(=O)n2cncn2)CC12CN(c1nc(OC[C@@]34CCCN3C[C@H](F)C4)nc3c(F)c(-c4ccc(F)c5sc(N)c(C#N)c45)c(Cl)cc13)CCO2` (stereo partly drawn) [Compound 112, 2-amino-4-(6-chloro-4-(1-ethyl-2-(1H-1,2,4-triazole-1-carbonyl)-5-oxa-2,8-diazaspiro[3.5]nonan-8-yl)-8-fluoro-2-(((2R,7aS)-2-fluorotetrahydro-1H-pyrrolizin-7a(5H)-yl)methoxy)quinazolin-7-yl)-7-fluorobenzo[b]thiophene-3-carbonitrile]: the IC50 is ≤ 0.5 µM.

As to `CCN(C(=O)n1cnc(F)n1)[C@@H]1CCN(c2nc(OC[C@@]34CCCN3C[C@H](F)C4)nc3c(F)c(-c4ccc(F)c5sc(N)c(C#N)c45)c(Cl)cc23)[C@@H]1C` [Compound 115, N-((2R,3R)-1-(7-(2-amino-3-cyano-7-fluorobenzo[b]thiophen-4-yl)-6-chloro-8-fluoro-2-(((2R,7aS)-2-fluorotetrahydro-1H-pyrrolizin-7a(5H)-yl)methoxy)quinazolin-4-yl)-2-methylpyrrolidin-3-yl)-N-ethyl-3-fluoro-1H-1,2,4-triazole-1-carboxamide], the half-inhibitory concentration (IC50) was ≤ 0.5 µM. Still for that read-out and setting: the figure for `CC(C)C1N(C(=O)n2cncn2)CC12CCCN(c1nc(OC[C@@]34CCCN3C[C@H](F)C4)nc3c(F)c(-c4ccc(F)c5sc(N)c(C#N)c45)c(Cl)cc13)C2` (stereo partly drawn) [Compound 116, 2-amino-4-(6-chloro-8-fluoro-2-(((2R,7aS)-2-fluorotetrahydro-1H-pyrrolizin-7a(5H)-yl)methoxy)-4-(1-isopropyl-2-(1H-1,2,4-triazole-1-carbonyl)-2,6-diazaspiro[3.5]nonan-6-yl)quinazolin-7-yl)-7-fluorobenzo[b]thiophene-3-carbonitrile] is ≤ 0.5 µM; for `CC(C)[C@H]1N(C(=O)n2cncn2)C[C@]12CCCN(c1nc(OC[C@@]34CCCN3C[C@H](F)C4)nc3c(F)c(-c4ccc(F)c5sc(N)c(C#N)c45)c(Cl)cc13)C2` [Compound 118, 2-amino-4-(6-chloro-8-fluoro-2-(((2R,7aS)-2-fluorotetrahydro-1H-pyrrolizin-7a(5H)-yl)methoxy)-4-((1R,4R)-1-isopropyl-2-(1H-1,2,4-triazole-1-carbonyl)-2,6-diazaspiro[3.5]nonan-6-yl)quinazolin-7-yl)-7-fluorobenzo[b]thiophene-3-carbonitrile] it is ≤ 0.5 µM. On to `CN(C(=O)n1cncn1)C1CCCN(c2nc(OC[C@@]34CCCN3C[C@H](F)C4)nc3c(F)c(-c4ccc(F)c5sc(N)c(C#N)c45)c(Cl)cc23)C1` (stereo partly drawn) [Compound 119, N-(1-(7-(2-amino-3-cyano-7-fluorobenzo[b]thiophen-4-yl)-6-chloro-8-fluoro-2-(((2R,7aS)-2-fluorotetrahydro-1H-pyrrolizin-7a(5H)-yl)methoxy)quinazolin-4-yl)piperidin-3-yl)-N-methyl-1H-1,2,4-triazole-1-carboxamide], for which the IC50 was ≤ 0.5 µM. For the molecule `COCC1([C@@H]2[C@H](CN(C)c3nc(OC[C@@]45CCCN4C[C@H](F)C5)nc4c(F)c(-c5ccc(F)c6sc(N)c(C#N)c56)c(Cl)cc34)CN2C(=O)n2cnc(F)n2)CC1` [Compound 120, 2-amino-4-(6-chloro-8-fluoro-4-((((2S,3R)-1-(3-fluoro-1H-1,2,4-triazole-1-carbonyl)-2-(1-(methoxymethyl)cyclopropyl)azetidin-3-yl)methyl)(methyl)amino)-2-(((2R,7aS)-2-fluorotetrahydro-1H-pyrrolizin-7a(5H)-yl)methoxy)quinazolin-7-yl)-7-fluorobenzo[b]thiophene-3-carbonitrile], the IC50 is ≤ 0.5 µM.

Regarding `CCC1N(C(=O)n2cncn2)CC12CCN(c1nc(OC[C@@]34CCCN3C[C@H](F)C4)nc3c(F)c(-c4ccc(F)c5sc(N)c(C#N)c45)c(Cl)cc13)C2` (stereo partly drawn) [Compound 123, (4R)-2-amino-4-(6-chloro-4-(1-ethyl-2-(1H-1,2,4-triazole-1-carbonyl)-2,6-diazaspiro[3.4]octan-6-yl)-8-fluoro-2-(((2R,7aS)-2-fluorotetrahydro-1H-pyrrolizin-7a(5H)-yl)methoxy)quinazolin-7-yl)-7-fluorobenzo[b]thiophene-3-carbonitrile], the IC50 was ≤ 0.5 µM. On to `CN(C(=O)n1cncn1)C1CCN(c2nc(OC[C@@]34CCCN3C[C@H](F)C4)nc3c(F)c(-c4ccc(F)c5sc(N)c(C#N)c45)c(Cl)cc23)C1` (stereo partly drawn) [Compound 124, N-(1-(7-(2-amino-3-cyano-7-fluorobenzo[b]thiophen-4-yl)-6-chloro-8-fluoro-2-(((2R,7aS)-2-fluorotetrahydro-1H-pyrrolizin-7a(5H)-yl)methoxy)quinazolin-4-yl)pyrrolidin-3-yl)-N-methyl-1H-1,2,4-triazole-1-carboxamide], for which the concentration for half-maximal inhibition (IC50) is ≤ 0.5 µM. On to `CC1C(N(C)C(=O)n2cncn2)CCN1c1nc(OC[C@@]23CCCN2C[C@H](F)C3)nc2c(F)c(-c3ccc(F)c4sc(N)c(C#N)c34)c(Cl)cc12` (stereo partly drawn) [Compound 125, N-(1-(7-(2-amino-3-cyano-7-fluorobenzo[b]thiophen-4-yl)-6-chloro-8-fluoro-2-(((2R,7aS)-2-fluorotetrahydro-1H-pyrrolizin-7a(5H)-yl)methoxy)quinazolin-4-yl)-2-methylpyrrolidin-3-yl)-N-methyl-1H-1,2,4-triazole-1-carboxamide], for which the IC50 is ≤ 0.5 µM. With `N#Cc1c(N)sc2c(F)ccc(-c3c(Cl)cc4c(N5CCCC6(C5)CN(C(=O)n5cncn5)C6C5CC5)nc(OC[C@@]56CCCN5C[C@H](F)C6)nc4c3F)c12` (stereo partly drawn) [Compound 127, 2-amino-4-(6-chloro-4-(1-cyclopropyl-2-(1H-1,2,4-triazole-1-carbonyl)-2,6-diazaspiro[3.5]nonan-6-yl)-8-fluoro-2-(((2R,7aS)-2-fluorotetrahydro-1H-pyrrolizin-7a(5H)-yl)methoxy)quinazolin-7-yl)-7-fluorobenzo[b]thiophene-3-carbonitrile], the concentration for half-maximal inhibition (IC50) is ≤ 0.5 µM. With `COCC1([C@H]2N(C(=O)n3cnc(F)n3)C[C@]23CC[C@H](C)N(c2nc(OC[C@@]45CCCN4C[C@H](F)C5)nc4c(F)c(-c5ccc(F)c6sc(N)c(C#N)c56)c(Cl)cc24)C3)CC1` [Compound 129, 2-amino-4-(6-chloro-8-fluoro-4-((1S,4R,7S)-2-(3-fluoro-1H-1,2,4-triazole-1-carbonyl)-1-(1-(methoxymethyl)cyclopropyl)-7-methyl-2,6-diazaspiro[3.5]nonan-6-yl)-2-(((2R,7aS)-2-fluorotetrahydro-1H-pyrrolizin-7a(5H)-yl)methoxy)quinazolin-7-yl)-7-fluorobenzo[b]thiophene-3-carbonitrile], the IC50 was ≤ 0.5 µM. Take `CN(C[C@@H]1CN(C(=O)n2cnc(F)n2)[C@@H]1C1(C)CC1)c1nc(OC[C@@]23CCCN2C[C@H](F)C3)nc2c(F)c(-c3ccc(F)c4sc(N)c(C#N)c34)c(Cl)cc12` [Compound 130, 2-amino-4-(6-chloro-8-fluoro-4-((((2S,3R)-1-(3-fluoro-1H-1,2,4-triazole-1-carbonyl)-2-(1-methylcyclopropyl)azetidin-3-yl)methyl)(methyl)amino)-2-(((2R,7aS)-2-fluorotetrahydro-1H-pyrrolizin-7a(5H)-yl)methoxy)quinazolin-7-yl)-7-fluorobenzo[b]thiophene-3-carbonitrile]: the half-maximal inhibitory concentration (IC50) was ≤ 0.5 µM.

Take `CC[C@H]1N(C(=O)n2cnc(Cl)n2)C[C@]12CCCCN(c1nc(OC[C@@]34CCCN3C[C@H](F)C4)nc3c(F)c(-c4ccc(F)c5sc(N)c(C#N)c45)c(Cl)cc13)C2` [Compound 131, 2-amino-4-(6-chloro-4-((1R,4R)-2-(3-chloro-1H-1,2,4-triazole-1-carbonyl)-1-ethyl-2,6-diazaspiro[3.6]decan-6-yl)-8-fluoro-2-(((2R,7aS)-2-fluorotetrahydro-1H-pyrrolizin-7a(5H)-yl)methoxy)quinazolin-7-yl)-7-fluorobenzo[b]thiophene-3-carbonitrile]: the IC50 was ≤ 0.5 µM. Same read-out and setting: the figure for `N#Cc1c(N)sc2c(F)ccc(-c3c(Cl)cc4c(N5CCC[C@@]6(C5)CN(C(=O)n5cnc(Cl)n5)[C@@H]6C5CCC5)nc(OC[C@@]56CCCN5C[C@H](F)C6)nc4c3F)c12` [Compound 133, 2-amino-4-(6-chloro-4-((1R,4R)-2-(3-chloro-1H-1,2,4-triazole-1-carbonyl)-1-cyclobutyl-2,6-diazaspiro[3.5]nonan-6-yl)-8-fluoro-2-(((2R,7aS)-2-fluorotetrahydro-1H-pyrrolizin-7a(5H)-yl)methoxy)quinazolin-7-yl)-7-fluorobenzo[b]thiophene-3-carbonitrile] is ≤ 0.5 µM.
